From patent publication US6987103B2, “Treatment of chronic myelogenous leukmia, resistant or intolerant to ST1571, involving homoharringtonine alone or combined with other agents” (Stragen Pharma S.A., priority 2001, dated 2006)

Key:
[1] = tested on: Chronic myelogenous leukemia (CML); settings: in vivo; cited from earlier work
[2] = tested on: accelerated phase chronic myelogenous leukemia; settings: human, in vivo
Procedure: Description. […] The patient was resistant to interferon alpha, BCNU, HU at the time of initiation of induction with homoharringtonine (2.5 mg/m^2/day, 15 days). After white blood cell and platelet counts recovery, ten further 7-day cycles of homoharringtonine combined with cytarabine (Ara-C) 10 mg (flat dose) daily, were administered. An average of 7 days of daily Ara-C per 28-day cycle was used (see treatment plan of FIG. 1).

[3] = tested on: chronic phase of Philadelphia positive chronic myelogenous leukemia; assay: Case of patient #15 successively resistant to five drugs including STI571, treated by homoharringtonine; assay type: in vivo, human
Procedure: After a debulking treatment with hydroxyurea, a combination of interferon alpha (5 MU/m^2/day) and low-dose cytarabine was administered according to a standard regimen (subcutaneous mode of administration, 15 mg/m^2/day, daily, permanently). Then, to maintain hematologic response at the initial level, cytarabine regimen was increased to intermediate dose (200 mg/m^2/day). […] Finally, a treatment based on homoharringtonine alone was initiated. At the time of initiation of homoharringtonine treatment, WBC count was 31,000/μL: 2.5 mg/m^2/day, 14 days.

[4] = in vivo; cited from earlier work
[5] = tested on: LAMA84-r; assay: MTS cell proliferation assay, median effect combination analysis with STI571; assay type: cell-based, human; settings: LAMA84-r (STI571-resistant); STI571:HHT = 27.3:1
Excerpt: (§1) The combination ratios are selected, where possible, such that both drugs are in a range relevant to their achievable serum concentrations. STI571-sensitive and resistant cells are exposed to doubling dilutions of homoharringtonine over a wide range (Table 1). […] The effects of homoharringtonine treatments are plotted and analyzed to produce computed estimations of the relative responses to either homoharringtonine alone or in combination. In this way it is possible to detect synergistic, additive or antagonistic effects. Duplicate or triplicate independent experiments are set up for each cell line/drug combination. In each case the analysis generates plots of CI (Combination Index) versus effect. […] These values are most relevant at high effect levels, as this is the desired physiological level of effect. Subsequently the CI curves can be represented as the average CI values at effects 0.5, 0.75 and 0.9 (IC50, IC75 and IC90 respectively). Cell proliferation is monitored with the CellTiter 96® AQucous One Solution Cell Proliferation Assay (Promega, UK). […] Proliferation is assessed on aliquots taken daily from days 1 to 4 in order to establish the most representative time-point. Replicate experiments are thereafter set up by plating the cells directly into 96-well plates and staining with MTS on day 3. A minimum of 95% viability as assessed by Trypan blue staining is required for the initiation of any experiment. […] Blank wells contained 100 μL RF10. All samples are plated in quadruplicate. […] On day 3, 20 μL of MTS reagent is added to each well, and the plate is re-incubated for a further 3–4 hours for stain development. At the end of this period, the plates are gently agitated and the absorbance of each well at 490 nm is recorded on an automatic microplate reader (MRX, Dynatech, Billingshurst, UK). Averaged blank values (no cells, no drug) are subtracted from sample values, and these corrected A490 values are calculated as percentages of the control cultures grown in the absence of drug. Error bars indicate the range defined in duplicate experiments, and significant differences considered as those which fell outside the region of overlap in the ranges of the means. Such an approach is supported by the non-parametric Mann-Whitney U test.

[6] = tested on: LAMA84-s; assay: as above; assay type: cell-based, human; settings: STI571:HHT = 27.3:1
Excerpt: as §1

[7] = tested on: K562-r; assay: as above; assay type: cell-based, human; settings: K562-r (STI571-resistant); STI571:HHT = 27.3:1
Excerpt: as §1

[8] = tested on: K562-s; assay: as above; assay type: cell-based, human; settings: STI571:HHT = 27.3:1
Excerpt: as §1

## interferon alpha
[1]
  median survival: about 7 years

## Nc1ccn([C@@H]2O[C@H](CO)[C@@H](O)[C@@H]2O)c(=O)n1 [cytarabine]
[2]
  adverse events attributable to the agent: Mouth ulceration and alveolar hemorrhage

## COC(=O)C[C@](O)(CCCC(C)(C)O)C(=O)O[C@@H]1C(OC)=C[C@]23CCCN2CCc2cc4c(cc2[C@H]13)OCO4 [homoharringtonine]
[3]; patient #15, day 17, HHT 2.5 mg/m^2/day, 14 days, 31,000/μL at initiation
  WBC count: 2,400 /μL
[2]
  adverse events attributable to the agent: no non-hematologic adverse events attributable to homoharringtonine
[4]
  Drug concentration in serum: 36.6 nM
[5]
  Average CI (Combination index) at FA values of 0.5, 0.75 and 0.9: 0.6
[6]
  Average CI (Combination index) at FA values of 0.5, 0.75 and 0.9: 1.2
[7]
  Average CI (Combination index) at FA values of 0.5, 0.75 and 0.9: 0.6
[8]
  Average CI (Combination index) at FA values of 0.5, 0.75 and 0.9: 1.1

## COC(=O)[C@H](CCSC)NC(=O)c1ccc(NC[C@@H](N)CS)cc1-c1ccccc1 [farnesyl transferase inhibitor]
[3]; patient #15, after first relapse under interferon alpha
  peripheral blood response: transient peripheral blood response
